Kinact/Kl data for 17 compounds are collected here from US20250230165A1, “HETEROCYCLIC COMPOUNDS FOR USE IN THE TREATMENT OF CANCER” (ARTIOS PHARMA LIMITED, priority 2021, published 2025).

Molecules are shown by their SMILES.

For this assay, the target named is T1, Human Polθ polymerase domain (aa1820-2590) (Homo sapiens, UniProt O75417).
T1 construct: Human Polθ polymerase domain (aa1820-2590) was expressed in E. coli; made in house; host or cells: E. coli
T1 sequence (O75417 1820-2590): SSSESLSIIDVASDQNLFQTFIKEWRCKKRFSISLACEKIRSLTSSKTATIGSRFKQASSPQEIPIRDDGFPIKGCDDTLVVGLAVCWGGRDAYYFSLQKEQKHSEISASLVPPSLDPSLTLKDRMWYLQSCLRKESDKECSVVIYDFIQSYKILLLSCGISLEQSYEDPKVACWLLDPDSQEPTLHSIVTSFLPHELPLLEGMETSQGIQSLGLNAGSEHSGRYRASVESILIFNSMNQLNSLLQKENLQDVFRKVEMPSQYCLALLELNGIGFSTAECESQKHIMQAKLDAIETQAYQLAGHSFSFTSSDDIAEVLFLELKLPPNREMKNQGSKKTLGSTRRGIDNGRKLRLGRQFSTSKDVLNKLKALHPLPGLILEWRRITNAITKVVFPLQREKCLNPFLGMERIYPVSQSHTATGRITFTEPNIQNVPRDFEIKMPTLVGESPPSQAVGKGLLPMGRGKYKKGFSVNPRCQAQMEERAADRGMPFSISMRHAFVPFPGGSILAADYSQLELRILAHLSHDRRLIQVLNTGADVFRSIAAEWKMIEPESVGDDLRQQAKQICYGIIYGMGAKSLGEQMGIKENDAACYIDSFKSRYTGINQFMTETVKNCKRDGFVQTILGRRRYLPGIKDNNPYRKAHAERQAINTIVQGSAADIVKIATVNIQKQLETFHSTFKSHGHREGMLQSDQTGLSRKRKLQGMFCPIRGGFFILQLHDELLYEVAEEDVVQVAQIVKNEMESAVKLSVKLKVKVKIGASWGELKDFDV
Put plainly: Polθ Polymerase Domain Kinact/KI Assay (PicoGreen). The format is biochemical. Conditions: 0.8 nM Polθ, 100 nM DNA substrate, kobs vs [I] fit for 2-step covalent inhibitor. In a few lines:
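PicoGreen fluorescence read-out of primer extension; progress curves per inhibitor concentration fitted for kobs, then kobs vs [I] fitted to a two-step covalent model to give Kinact and KI. Conditions: 0.8 nM enzyme, 100 nM DNA substrate, […].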
In turn, `C=CC(=O)N1CC(n2cnc(CN3C[C@H]4CC(=O)N(c5cc(C(F)(F)F)cc(C)n5)[C@@H]4C(=O)N(C)c4cccc(C)c43)n2)C1` [Example 139, (3aR,11aS)-5-((1-(1-acryloylazetidin-3-yl)-1H-1,2,4-triazol-3-yl)methyl)-6,10-dimethyl-1-(6-methyl-4-(trifluoromethyl)pyridin-2-yl)-1,3a,4,5,10,11a-hexahydro-2H-benzo[b]pyrrolo[2,3-f][1,4]diazocine-2,11(3H)-dione] returned a Kinact/Kl of 2.37e+06 M⁻¹ s⁻¹.

The compound `C=CC(=O)N1Cc2nc(CN3C[C@H]4CC(=O)N(c5cc(C(F)(F)F)cc(C)n5)[C@@H]4C(=O)N(C)c4cccc(Cl)c43)sc2C1` [Example 280, (3aR,11aS)-5-((5-acryloyl-5,6-dihydro-4H-pyrrolo[3,4-d]thiazol-2-yl)methyl)-6-chloro-10-methyl-1-(6-methyl-4-(trifluoromethyl)pyridin-2-yl)-1,3a,4,5,10,11a-hexahydro-2H-benzo[b]pyrrolo[2,3-f][1,4]diazocine-2,11(3H)-dione] displayed a Kinact/Kl of 2.54e+06 M⁻¹ s⁻¹.

In the case of `C=CC(=O)NC1CCN(CCN2C[C@H]3CC(=O)N(c4cc(C(F)(F)F)cc(C)n4)[C@@H]3C(=O)N(C)c3cccc(Cl)c32)CC1(F)F` (mixture of isomers) [Example 257a, N—((S/R)-1-(2-((3aR,11aS)-6-chloro-10-methyl-1-(6-methyl-4-(trifluoromethyl)pyridin-2-yl)-2,11-dioxo-1,2,3,3a,4,10,11,11a-octahydro-5H-benzo[b]pyrrolo[2,3-f][1,4]diazocin-5-yl)ethyl)-3,3-difluoropiperidin-4-yl)acrylamide], the Kinact/Kl worked out at 2.17e+06 M⁻¹ s⁻¹.

The compound `C=CC(=O)N1CC(n2ccc(CN3C[C@H]4CC(=O)N(c5cc(C(F)(F)F)cc(C)n5)[C@@H]4C(=O)N(C)c4cccc(F)c43)n2)C1` [Example 120, (3aR,11aS)-5-((1-(1-acryloylazetidin-3-yl)-1H-pyrazol-3-yl)methyl)-6-fluoro-10-methyl-1-(6-methyl-4-(trifluoromethyl)pyridin-2-yl)-1,3a,4,5,10,11a-hexahydro-2H-benzo[b]pyrrolo[2,3-f][1,4]diazocine-2,11(3H)-dione] registered a Kinact/Kl of 890000 M⁻¹ s⁻¹.

Compound `C=CC(=O)N1CCN2C[C@@H](CN3C[C@H]4CC(=O)N(c5cc(C(F)(F)F)cc(C)n5)[C@@H]4C(=O)N(C)c4cccc(F)c43)N(C)C[C@H]2C1` (single isomer, unassigned) [Example 140a] had a Kinact/Kl of 22000 M⁻¹ s⁻¹.

Take `C=CC(=O)N1CCN2C(=O)CN(CCN3C[C@H]4CC(=O)N(c5cc(C(F)(F)F)cc(C)n5)[C@@H]4C(=O)N(C)c4cccc(F)c43)CC2C1` (mixture of isomers) [Example 116a, (3aR,11aS)-5-(2-((R/S)-8-acryloyl-4-oxooctahydro-2H-pyrazino[1,2-a]pyrazin-2-yl)ethyl)-6-fluoro-10-methyl-1-(6-methyl-4-(trifluoromethyl)pyridin-2-yl)-1,3a,4,5,10,11a-hexahydro-2H-benzo[b]pyrrolo[2,3-f][1,4]diazocine-2,11(3H)-dione]: the Kinact/Kl worked out at 1.17e+06 M⁻¹ s⁻¹.

Compound `C=C(CN(C)C)C(=O)N1CC(c2ccc(CN3C[C@H]4CC(=O)N(c5cc(C(F)(F)F)cc(C)n5)[C@@H]4C(=O)N(C)c4cccc(F)c43)cc2)C1` [Example 151, (3aR, 11aS)-5-(4-(1-(2-((dimethylamino)methyl)acryloyl)azetidin-3-yl)benzyl)-6-fluoro-10-methyl-1-(6-methyl-4-(trifluoromethyl)pyridin-2-yl)-1,3a,4,5,10,11a-hexahydro-2H-benzo[b]pyrrolo[2,3-f][1,4]diazocine-2,11(3H)-dione] had a Kinact/Kl of 2.04e+06 M⁻¹ s⁻¹.

As to `C=CC(=O)N1CC(N2CCN(CCN3C[C@H]4CC(=O)N(c5cc(C(F)(F)F)cc(C)n5)[C@@H]4C(=O)N(C)c4cccc(F)c43)C[C@@H]2CF)C1` [Example 28, (3aR,11aS)-5-(2-((R)-4-(1-acryloylazetidin-3-yl)-3-(fluoromethyl)piperazin-1-yl)ethyl)-6-fluoro-10-methyl-1-(6-methyl-4-(trifluoromethyl)pyridin-2-yl)-1,3a,4,5,10,11a-hexahydro-2H-benzo[b]pyrrolo[2,3-f][1,4]diazocine-2,11(3H)-dione], the Kinact/Kl was found to be 350000 M⁻¹ s⁻¹.

In the case of `Cc1cc(C(F)(F)F)cc(N2C(=O)C[C@@H]3CN(Cc4ccc5c(c4)OCCN5C(=O)/C=C/CN(C)C)c4c(Cl)cccc4N(C)C(=O)[C@H]32)n1` [Example 308, (3aR,11aS)-6-chloro-5-((4-((E)-4-(dimethylamino)but-2-enoyl)-3,4-dihydro-2H-benzo[b][1,4]oxazin-7-yl)methyl)-10-methyl-1-(6-methyl-4-(trifluoromethyl)pyridin-2-yl)-1,3a,4,5,10,11a-hexahydro-2H-benzo[b]pyrrolo[2,3-f][1,4]diazocine-2,11(3H)-dione], the Kinact/Kl amounted to 280000 M⁻¹ s⁻¹.

As to `C=CC(=O)N1CCc2cc(CN3C[C@H]4CC(=O)N(c5cc(C(F)(F)F)cc(C)n5)[C@@H]4C(=O)N(C)c4cccc(F)c43)ccc2C1` [Example 131, (3aR,11aS)-5-((2-acryloyl-1,2,3,4-tetrahydoisoquinolin-6-yl)methyl)-6-fluoro-10-methyl-1-(6-methyl-4-(trifluoromethyl)pyridin-2-yl)-1,3a,4,5,10,11a-hexahydro-2H-benzo[b]pyrrolo[2,3-f][1,4]diazocine-2,11(3H)-dione], the Kinact/Kl was 530000 M⁻¹ s⁻¹.

The compound `C=C(CN(C)C)C(=O)N1CC(CCCN2C[C@H]3CC(=O)N(c4cc(C(F)(F)F)cc(C)n4)[C@@H]3C(=O)N(C)c3cccc(C)c32)C1` [Example 327, (3aR,11aS)-5-(3-(1-(2-((dimethylamino)-methyl)acryloyl)-azetidin-3-yl)propyl)-6,10-dimethyl-1-(6-methyl-4-(trifluoro-methyl)pyridin-2-yl)-1,3a,4,5,10,11a-hexa-hydro-2H-benzo[b] pyrrolo[2,3-f][1,4] diazocine-2,11(3H)-dione] gave a Kinact/Kl of 3.64e+06 M⁻¹ s⁻¹.

As to `C=CC(=O)N1CC(N2CC[C@H](CN3C[C@H]4CC(=O)N(c5cc(C(F)(F)F)cc(C)n5)[C@@H]4C(=O)N(C)c4cccc(Cl)c43)[C@H](C#N)C2)C1` (single isomer, unassigned) [Example 227a], the Kinact/Kl was determined as 230000 M⁻¹ s⁻¹.

The compound `C=CC(=O)N1Cc2cc(CN3C[C@H]4CC(=O)N(c5cc(C(F)(F)F)cc(C)n5)[C@@H]4C(=O)N(C)c4cccc(Cl)c43)cnc2[C@@H]1CC#N` (racemic) [Example 292a, 2-((S/R)-6-acryloyl-3-(((3aR,11aS)-6-chloro-10-methyl-1-(6-methyl-4-(trifluoromethyl)pyridin-2-yl)-2,11-dioxo-1,2,3,3a,4,10,11,11a-octahydro-5H-benzo[b]pyrrolo[2,3-f][1,4]diazocin-5-yl)methyl)-6,7-dihydro-5H-pyrrolo[3,4-b]pyridin-7-yl)acetonitrile] returned a Kinact/Kl of 2.97e+06 M⁻¹ s⁻¹.

Compound `C=CC(=O)N1CC2(C1)C(C)N(CCN1C[C@H]3CC(=O)N(c4cc(C(F)(F)F)cc(C)n4)[C@@H]3C(=O)N(C)c3cccc(F)c31)C[C@H]1COCCN12` (single isomer, unassigned) [Example 7] came in with a Kinact/Kl of 410000 M⁻¹ s⁻¹.

`C=CC(=O)N1CCN2CCN(CCN3C[C@H]4CC(=O)N(c5cc(C(F)(F)F)cc(C)n5)[C@@H]4C(=O)N(C)c4cccc(F)c43)CC2C1` (single isomer, unassigned) [Example 23b] came in with a Kinact/Kl of 540000 M⁻¹ s⁻¹.

Turning to `C=C(CN(C)C)C(=O)N1CC(F)(COCCN2C[C@H]3CC(=O)N(c4cc(C(F)(F)F)cc(C)n4)[C@@H]3C(=O)N(C)c3cccc(Cl)c32)C1` [Example 305, (3aR,11aS)-6-chloro-5-(2-((1-(2-((dimethylamino)methyl)acryloyl)-3-fluoroazetidin-3-yl)methoxy)ethyl)-10-methyl-1-(6-methyl-4-(trifluoromethyl)pyridin-2-yl)-1,3a,4,5,10,11a-hexahydro-2H-benzo[b]pyrrolo[2,3-f][1,4]diazocine-2,11(3H)-dione], the Kinact/Kl came to 1.82e+06 M⁻¹ s⁻¹.

On to `Cc1cc(C(F)(F)F)cc(N2C(=O)C[C@@H]3CN(CCCC(F)(F)CNC(=O)/C=C/CN(C)C)c4c(Cl)cccc4N(C)C(=O)[C@H]32)n1` [Example 296, (E)-N-(5-((3aR,11aS)-6-chloro-10-methyl-1-(6-methyl-4-(trifluoromethyl)pyridin-2-yl)-2,11-dioxo-1,2,3,3a,4,10,11,11a-octahydro-5H-benzo[b]pyrrolo[2,3-f][1,4]diazocin-5-yl)-2,2-difluoropentyl)-4-(dimethylamino)but-2-enamide], for which the Kinact/Kl is 3e+06 M⁻¹ s⁻¹.
